Measurements published in paper PMC6230393, “Enhancing TFEB-Mediated Cellular Degradation Pathways by the mTORC1 Inhibitor Quercetin” (Oxidative Medicine and Cellular Longevity, 2018).

Biological target: mTOR (Homo sapiens, UniProt P42345)
Assay: LanthaScreen TR-FRET in vitro kinase assay, purified mTOR (PV4753), GFP-4E-BP1 substrate, […] ATP, […] MnCl2
Assay type: biochemical

O=c1c(O)c(-c2ccc(O)c(O)c2)oc2cc(O)cc(O)c12 [quercetin, 3,3′,4′,5,7-pentahydroxyflavone]
IC50: 7.8 µM
